{"source": "patent US5013719A", "about": "“Method of effecting immunosuppression” (Merrell Dow Pharmaceuticals Inc., priority 1988, dated 1991)", "system": "cytolytic T lymphocyte induction (51Cr labeled P815 target cells)", "test": "Cytolytic T-lymphocyte induction in vivo (splenic cytolytic activity, 4-hour 51Cr release assay)", "parameters": "species or system C57BL/6 mice", "settings": "DFMO 2% in drinking water from day 1; splenic CTL activity day 10; vs vehicle treated control", "protocol": "Alloreactive cytolytic T-lymphocytes (CTL) are generated in vivo by injecting C57BL/6 mice intraperitoneally with allogenic P815 (H-2^d) cells (10^7) on day 0.\nSplenic cytolytic activity, which represents a direct measurement of immune response, is assessed by a 4-hour ^51 Cr release assay as described by Bowlin et al., Cell. […] Effector cells are characterized as T-cells based on surface phenotype (Thy 1.2^+, Lyt 2.2^+, L3T4^-) and allo-specificity (H-^2 d) as described by Bowlin et al., Cell Immunnol.\n^a C57BL/6 mice were injected with allogeneic P815 cells on day 0.\nDFMO was administered continuously, starting on day 1, in drinking water.\n^b Splenic cytolytic T lymphocyte activity was assessed on day 10\nutilizing ^51 Cr labeled P815 target cells. Data is expressed as %\ninhibition compared with vehicle treated control.", "data": [{"compound": "NCCC[C@](N)(C(=O)O)C(F)F", "note": "[DFMO, α-difluoromethylornithine]", "values": [{"measurement": "Cytolytic T Lymphocyte Induction % Inhibition (mean ± S.E., n = 3)", "value": "10 ± 0.5", "unit": "%"}]}]}
